The text below walks through data of patent US8530460B2, “Azetidine derivatives” (Boehringer Ingelheim International GmbH, priority 2011, dated 2013).

SMILES strings stand for the structures. pIC50: −log10 of the molar value.

Sequence of human ACC2 (O00763 129-2458): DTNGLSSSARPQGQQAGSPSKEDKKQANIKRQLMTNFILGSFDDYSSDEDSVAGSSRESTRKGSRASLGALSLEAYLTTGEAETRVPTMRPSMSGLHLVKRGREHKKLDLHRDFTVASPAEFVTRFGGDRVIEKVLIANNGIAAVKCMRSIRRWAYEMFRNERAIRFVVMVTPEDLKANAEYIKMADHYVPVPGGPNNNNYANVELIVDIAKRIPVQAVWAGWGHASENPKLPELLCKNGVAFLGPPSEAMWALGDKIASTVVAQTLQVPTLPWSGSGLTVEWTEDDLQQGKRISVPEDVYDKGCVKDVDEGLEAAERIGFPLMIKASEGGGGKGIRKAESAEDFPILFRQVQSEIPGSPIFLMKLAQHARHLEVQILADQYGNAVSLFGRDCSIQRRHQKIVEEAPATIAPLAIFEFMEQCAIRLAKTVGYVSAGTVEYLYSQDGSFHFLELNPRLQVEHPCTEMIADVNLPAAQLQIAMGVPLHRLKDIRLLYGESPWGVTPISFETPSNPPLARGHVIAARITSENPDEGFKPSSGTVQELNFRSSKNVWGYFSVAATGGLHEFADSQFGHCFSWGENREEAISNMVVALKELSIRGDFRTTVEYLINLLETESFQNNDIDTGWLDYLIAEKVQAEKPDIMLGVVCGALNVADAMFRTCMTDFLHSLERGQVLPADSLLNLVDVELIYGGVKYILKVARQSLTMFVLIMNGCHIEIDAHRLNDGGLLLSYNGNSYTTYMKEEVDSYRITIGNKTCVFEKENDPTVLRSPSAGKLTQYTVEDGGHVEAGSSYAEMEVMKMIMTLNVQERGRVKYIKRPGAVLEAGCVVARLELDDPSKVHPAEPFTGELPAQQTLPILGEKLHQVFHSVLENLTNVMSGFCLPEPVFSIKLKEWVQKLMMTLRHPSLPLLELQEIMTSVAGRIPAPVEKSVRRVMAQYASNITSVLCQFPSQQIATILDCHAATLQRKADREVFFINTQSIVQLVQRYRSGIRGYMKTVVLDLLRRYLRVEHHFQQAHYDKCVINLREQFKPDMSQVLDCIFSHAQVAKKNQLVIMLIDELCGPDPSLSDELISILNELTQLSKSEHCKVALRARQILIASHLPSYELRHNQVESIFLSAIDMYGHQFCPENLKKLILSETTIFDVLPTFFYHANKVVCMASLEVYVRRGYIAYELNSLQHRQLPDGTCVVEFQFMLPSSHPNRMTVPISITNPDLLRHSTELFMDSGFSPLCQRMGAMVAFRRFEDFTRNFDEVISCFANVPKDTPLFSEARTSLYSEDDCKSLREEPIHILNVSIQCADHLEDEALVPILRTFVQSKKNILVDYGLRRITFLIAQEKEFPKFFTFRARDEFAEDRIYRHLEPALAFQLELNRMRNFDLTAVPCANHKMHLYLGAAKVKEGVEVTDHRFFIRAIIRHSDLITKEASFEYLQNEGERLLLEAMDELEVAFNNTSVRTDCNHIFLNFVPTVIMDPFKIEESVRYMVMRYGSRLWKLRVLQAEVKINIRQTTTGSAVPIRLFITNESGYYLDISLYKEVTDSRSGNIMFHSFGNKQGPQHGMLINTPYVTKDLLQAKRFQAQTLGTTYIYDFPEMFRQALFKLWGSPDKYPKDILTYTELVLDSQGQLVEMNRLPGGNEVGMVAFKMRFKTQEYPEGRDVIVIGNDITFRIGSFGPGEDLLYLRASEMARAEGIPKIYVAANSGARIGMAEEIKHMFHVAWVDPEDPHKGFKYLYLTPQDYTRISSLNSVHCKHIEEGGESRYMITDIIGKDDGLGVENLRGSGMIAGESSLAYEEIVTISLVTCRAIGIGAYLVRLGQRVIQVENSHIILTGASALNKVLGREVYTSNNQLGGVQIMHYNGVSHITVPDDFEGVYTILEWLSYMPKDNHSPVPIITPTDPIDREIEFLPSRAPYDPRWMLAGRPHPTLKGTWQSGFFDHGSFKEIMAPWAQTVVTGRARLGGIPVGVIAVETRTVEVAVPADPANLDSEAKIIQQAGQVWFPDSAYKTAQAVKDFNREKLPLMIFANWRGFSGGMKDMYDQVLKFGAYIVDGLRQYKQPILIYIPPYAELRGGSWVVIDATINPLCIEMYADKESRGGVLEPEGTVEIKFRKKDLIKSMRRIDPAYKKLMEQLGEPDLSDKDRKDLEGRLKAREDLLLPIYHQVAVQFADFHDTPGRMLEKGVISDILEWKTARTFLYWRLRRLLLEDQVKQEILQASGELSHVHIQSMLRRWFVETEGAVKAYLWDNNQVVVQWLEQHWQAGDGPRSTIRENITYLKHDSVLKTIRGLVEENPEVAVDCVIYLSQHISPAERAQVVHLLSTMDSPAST

The assay has as its target human ACC2 (Homo sapiens (Human), UniProt O00763). Kind of assay: ACC2 assay (spectrophotometric 384 well assay, NADH-linked coupled lactate dehydrogenase/pyruvate kinase). It counts as biochemical. The conditions noted are these: hACC2 construct lacking 128 N-terminal amino acids; 25° C., 340 nm, 15 minutes.
One may read the pIC50 as −log10 of the IC50, conventionally taken in molar units. The low end stands for a high IC50, the high end for a low IC50. In turn, `CCNC(=O)N[C@@H](C)c1ccc(OC2CN(c3ccc(OCC)cc3)C2)cc1` [Example 10.4] had a negative-log IC50 (pIC50) of 6.36. In the case of `CCCOc1ccc(N2CC(Oc3ccc([C@H](C)NC(=O)N(C)C)cc3)C2)c(OC)c1` [Example 10.5] it was 6.32; in that of `COC(=O)N[C@@H](C)c1ccc(OC2CN(c3ncc(C4CC4)cn3)C2)cc1` [Example 10.6], 6.38; in that of `CCOc1ccc(N2CC(Oc3ccc([C@H](C)NC(=O)OC)cc3)C2)cc1` [Example 10.7], 6.64. Compound `CCCOc1cc(N2CC(Oc3ccc([C@H](C)NC(C)=O)cc3)C2)ncn1` [Example 11.1, (S)—N-(1-(4-(1-(6-Propoxypyrimidin-4-yl)azetidin-3-yloxy)phenyl)ethyl)acetamide] had a negative logarithm of the IC50 (pIC50) of 5.22. For the compound `CC(=O)N[C@@H](C)c1ccc(OC2CN(c3cc(OC(C)C)ncn3)C2)cc1` [Example 11.2], the pIC50 was 4.97. In the case of `CCOc1cc(N2CC(Oc3ccc([C@H](C)NC(C)=O)cc3)C2)ncn1` [Example 11.3] it was 4.93; in that of `CC(=O)N[C@@H](C)c1ccc(OC2CN(c3cc(OCC4CC4)ncn3)C2)cc1` [Example 11.4], 5.62; in that of `CC(=O)N[C@@H](C)c1ccc(OC2CN(c3cc(OC4CCC4)ncn3)C2)cc1` [Example 11.5], 5.49. With `CCCOc1nccc(N2CC(Oc3ccc([C@H](C)NC(C)=O)cc3)C2)n1` [Example 11.6] the figure was 5.08; with `CC(=O)N[C@@H](C)c1ccc(OC2CN(c3cc(N(C)CC4CC4)ncn3)C2)cc1` [Example 12.1], 5.39. In the case of `CC(=O)N[C@@H](C)c1ccc(OC2CN(c3ccnc(N(C)CC4CC4)n3)C2)cc1` [Example 12.2] it was 6.15; in that of `CC(=O)NC(C)c1ccc(OC2CN(c3ccc(OCC4CC4)cc3)C2)c(F)c1` (stereo not shown) [Example 13, N-(1-(4-(1-(4-(cyclopropylmethoxy)phenyl)azetidin-3-yloxy)-3-fluorophenyl)ethyl)-acetamide], 7.00.
